Data on 29 molecules can be found in US12213970B2, “Pyridinyl sulfonamide derivatives, pharmaceutical compositions and uses thereof” (Boehringer Ingelheim International GmbH, priority 2018, dated 2025).

Counter-ions that a name gives are not always drawn. Like-named read-outs stand apart in the source and are kept apart here.

Assay [1] has as its target T1, human AOC3 enzyme (recombinant CHO cells) (Homo sapiens, UniProt Q16853).
T1 construct: expressed in transfected cells; host or cells: CHO cells
T1 sequence (Q16853 1-763): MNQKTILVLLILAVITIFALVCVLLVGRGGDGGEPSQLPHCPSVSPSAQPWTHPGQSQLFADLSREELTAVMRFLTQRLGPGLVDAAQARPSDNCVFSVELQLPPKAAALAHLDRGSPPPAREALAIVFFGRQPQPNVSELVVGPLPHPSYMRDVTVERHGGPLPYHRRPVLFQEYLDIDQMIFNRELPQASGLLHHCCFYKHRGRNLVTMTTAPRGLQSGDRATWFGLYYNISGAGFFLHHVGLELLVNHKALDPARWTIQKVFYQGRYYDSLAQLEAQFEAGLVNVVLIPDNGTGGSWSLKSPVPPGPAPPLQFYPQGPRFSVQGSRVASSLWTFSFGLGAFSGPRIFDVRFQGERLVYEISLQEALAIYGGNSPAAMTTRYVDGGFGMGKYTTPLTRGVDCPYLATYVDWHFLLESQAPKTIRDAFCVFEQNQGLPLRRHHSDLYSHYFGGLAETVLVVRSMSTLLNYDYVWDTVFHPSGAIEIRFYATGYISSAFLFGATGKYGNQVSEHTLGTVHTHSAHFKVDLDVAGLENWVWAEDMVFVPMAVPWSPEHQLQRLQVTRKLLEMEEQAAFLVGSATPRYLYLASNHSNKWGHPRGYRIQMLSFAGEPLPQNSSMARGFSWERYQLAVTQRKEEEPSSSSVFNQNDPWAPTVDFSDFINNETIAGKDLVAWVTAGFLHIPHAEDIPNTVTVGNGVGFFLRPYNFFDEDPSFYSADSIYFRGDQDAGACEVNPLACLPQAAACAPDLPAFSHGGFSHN
The assay can be described thus: AOC3 biochemical assay (MAO-Glo), human enzyme. The text has this: (§1) The MAO-Glo™ Assay (commercially available from PROMEGA, #V1402) provides a sensitive method for the measurement of monoamine oxidase (MAO) activity (Valley, M. P. et al., 2006, Anal. Biochem. 359: 238-246) from a variety of tissues, biofluids or recombinant expressed or purified enzymes. As substrate a derivate of the beetle luciferin ((4S)-4,5-dihydro-2-(6-hydroxybenzothiazolyl)-4-thiazole-carboxylic acid) is used, which is oxidized at a primary amine moiety. After a spontaneous elimination and a catalyzed esterase reaction, the turnover of luciferin by the luciferase is recorded as a signal of AOC3 activity.
An aliquot of 3 μL of the compound dilution is added to a 384 well plate (Optiplate, PS, flat bottom, white, PERKIN ELMER, #6007290) with a final DMSO concentration of 6.6%. Recombinant CHO cells, overexpressing the human (1500 cells/well), mouse (1000 cells/well) or rat (500 cells/well) AOC3 enzyme are diluted in reaction buffer and added in a volume of 15 μL to the wells. After incubation for 20 minutes at 37° C., 2 μL of MAO substrate (dissolved in DMSO at 16 mM, adjusted to assay concentration in reaction buffer to a final assay concentration of 20 μM) is added and further incubated for 60 minutes at 37° C. The turnover of the substrate is determined by the addition of 20 μL of the detection-mix which was generated by the addition of reconstitution buffer with esterase (PROMEGA, #V1402) to the luciferin detection reagent (PROMEGA, #V1402). After an incubation period of 20 minutes, the luminescent signal is measured with Envision 2104 Multilabel Reader (PERKIN ELMER).

The next assay deals with T2, MAO-A (Homo sapiens, UniProt P21397).
T2 construct: purchased Sigma-Aldrich M7316
T2 sequence (P21397 1-527): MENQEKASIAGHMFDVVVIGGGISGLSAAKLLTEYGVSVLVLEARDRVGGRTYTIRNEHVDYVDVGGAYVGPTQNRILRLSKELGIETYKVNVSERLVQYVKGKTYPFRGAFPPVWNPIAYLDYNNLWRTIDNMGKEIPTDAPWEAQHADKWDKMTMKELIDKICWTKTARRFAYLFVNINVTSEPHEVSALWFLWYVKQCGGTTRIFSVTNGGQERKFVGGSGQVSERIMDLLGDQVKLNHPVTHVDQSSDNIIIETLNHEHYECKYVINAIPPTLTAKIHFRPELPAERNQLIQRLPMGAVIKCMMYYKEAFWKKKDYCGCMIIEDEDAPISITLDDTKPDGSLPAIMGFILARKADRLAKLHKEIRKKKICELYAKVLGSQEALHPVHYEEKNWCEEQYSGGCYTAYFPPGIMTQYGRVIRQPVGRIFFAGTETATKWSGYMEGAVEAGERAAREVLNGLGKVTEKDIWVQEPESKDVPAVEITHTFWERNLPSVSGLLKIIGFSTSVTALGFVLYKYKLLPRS
Kind of assay: MAO-A biochemical assay (MAO-Glo).
Description: as §1, with “MAO-A” for “AOC3”
An aliquot of 3 μL of the compound dilution is added to a 384 well plate (Optiplate, PS, flat bottom F, black, PERKIN ELMER, #6007270) in a DMSO concentration of 1.025%.
A MAO-A enzyme aliquot (M7316, Sigma-Aldrich) is thawed on ice, diluted in reaction buffer to 1.25 mU/μL and added in a volume of 5 μL to the wells. After incubation for 20 minutes at 37° C., 2 μL of MAO substrate (dissolved in DMSO at 16 mM, diluted to 20 μM in assay buffer to obtain a final assay concentration of 4 μM) is added, mixed, and the mixture further incubated for 60 minutes at 37° C.
The turnover of the substrate is determined by the addition of 10 μL of the Detection Reagent mix which was generated by the addition of reconstitution buffer with esterase (PROMEGA, #V1402) to the luciferin detection reagent (PROMEGA, #V1402). After an incubation period of 20 minutes at 37° C., the luminescent signal is measured with a […], e.g. Envision 2104 Multilabel Reader (PERKIN ELMER).

[2] abbreviates: comparison table, read-out: IC50 AOC3.
Setting [3] is: comparison table, read-out: IC50 MAO-A.

For `NC/C(=C/F)COc1ccc(S(=O)(=O)N2CCC(C(=O)N3CCC3)CC2)cn1` [Example 10], the IC50 in assay [1] (read-out: AOC3 IC50) is 22 nM; on MAO-A (IC50, read-out: MAO-A), > 50000 nM.

For `CN(C)C(=O)[C@H]1CCN(S(=O)(=O)c2ccc(OC/C(=C\F)CN)nc2)C1` [Example 4], the IC50 was 23 nM in assay [1] (read-out: AOC3 IC50) and > 50000 nM on MAO-A (IC50, read-out: MAO-A).

As for `NC/C(=C/F)COc1cnc(N2CCC(O)CC2)nc1` [reference compound], the results for the IC50 (in assay [1] (setting [2]); on MAO-A (setting [3])) were 4 nM and 54900 nM, respectively.

For the molecule `CNC(=O)[C@H]1[C@@H]2CN(S(=O)(=O)c3ccc(OC/C(=C\F)CN)nc3)C[C@@H]21` [Example 27], the IC50 in assay [1] (read-out: AOC3 IC50) was 5 nM; on MAO-A (IC50, read-out: MAO-A), > 50000 nM.

`COC1CN(S(=O)(=O)c2ccc(OC/C(=C\F)CN)nc2)C1` [Example 33]: the IC50 in assay [1] (read-out: AOC3 IC50) turned out to be 3 nM; on MAO-A (IC50, read-out: MAO-A), 40500 nM; at MAO-A (setting [3]), 40500 nM.

Take `NC/C(=C/F)COc1cnc(N2CC[C@H](O)C2)nc1` [Z isomer of example 6 of WO 2018/027892, reference compound]: the IC50 stood at 7 nM in assay [1] (setting [2]) and 56300 nM on MAO-A (setting [3]).

`NC/C(=C/F)COc1ccc(S(=O)(=O)N2CC(C(N)=O)C2)cn1` [Example 20]: the IC50 is 6 nM in assay [1] (read-out: AOC3 IC50) and > 50000 nM at MAO-A (IC50, read-out: MAO-A).

For `COC(=O)C1(C)CCN(S(=O)(=O)c2ccc(OC/C(=C\F)CN)nc2)CC1` [Example 36], the IC50 turned out to be 4 nM in assay [1] (read-out: AOC3 IC50) and 13500 nM at MAO-A (IC50, read-out: MAO-A).

In the case of `NC/C(=C/F)COc1ccc(S(=O)(=O)N2CC(C3CCN(C(=O)C4CC4)CC3)C2)cn1` [Example 26], the IC50 in assay [1] (read-out: AOC3 IC50) is 9 nM; on MAO-A (IC50, read-out: MAO-A), > 50000 nM.

Take `NC/C(=C/F)COc1ccc(S(=O)(=O)N2C[C@H]3C[C@@]3(C(=O)N3CCOCC3)C2)cn1` [Example 22]: the IC50 in assay [1] (read-out: AOC3 IC50) was 35 nM; at MAO-A (IC50, read-out: MAO-A) it was > 50000 nM.

As to `NC/C(=C/F)COc1ccc(S(=O)(=O)N2C[C@@H]3[C@H](C2)[C@H]3C(=O)O)cn1` [Example 45, trans-3-[6-((Z)-2-Aminomethyl-3-fluoro-allyloxy)-pyridine-3-sulfonyl]-3-aza-bicyclo[3.1.0]hexane-6-carboxylic acid trifluoroacetate], the IC50 in assay [1] (read-out: AOC3 IC50) is 67 nM; on MAO-A (IC50, read-out: MAO-A), > 50000 nM.

On to `NC/C(=C/F)COc1ccc(S(=O)(=O)N2CC[C@@H](C(N)=O)C2)cn1` [Example 31], for which the IC50 in assay [1] (read-out: AOC3 IC50) is 4 nM; at MAO-A (IC50, read-out: MAO-A), > 50000 nM.

On to `NC/C(=C/F)COc1ccc(S(=O)(=O)N2CCC(C(=O)N3CCOCC3)CC2)cn1` [Example 3], for which the IC50 in assay [1] (read-out: AOC3 IC50) was 88 nM; at MAO-A (IC50, read-out: MAO-A), > 50000 nM.

As for `CC1(O)CCN(S(=O)(=O)c2ccc(OC/C(=C\F)CN)nc2)CC1` [Example 41], the IC50 was 10 nM in assay [1] (read-out: AOC3 IC50) and > 50000 nM on MAO-A (IC50, read-out: MAO-A).

`NC/C(=C/F)COc1ccc(S(=O)(=O)N2CC[C@H](O)C2)cn1` [Example 43, (S)-1-[6-(Z)-2-Aminomethyl-3-fluoro-allyloxy]-pyridine-3-sulfonyl]-pyrrolidin-3-ol trifluoroacetate]: the IC50 was found to be 10 nM in assay [1] (read-out: AOC3 IC50); 49100 nM on MAO-A (IC50, read-out: MAO-A); 49100 nM on MAO-A (setting [3]).

For the molecule `NC/C(=C/F)COc1ccc(S(=O)(=O)N2CCC(O)(C(F)(F)F)CC2)cn1` [Example 42], the IC50 stood at 6 nM in assay [1] (read-out: AOC3 IC50) and 48200 nM on MAO-A (IC50, read-out: MAO-A).

With `CC(C)(O)CNC(=O)[C@H]1CCN(S(=O)(=O)c2ccc(OC/C(=C\F)CN)nc2)C1` [Example 2], the IC50 in assay [1] (read-out: AOC3 IC50) was 40 nM; at MAO-A (IC50, read-out: MAO-A), > 50000 nM.

As to `NC/C(=C/F)COc1ccc(S(=O)(=O)N2CC[C@H](O)C2)cc1` [Reference compound B, reference compound], the values for the IC50 (in assay [1] (setting [2]); on MAO-A (setting [3])) were 6 nM and 7250 nM, respectively.

Turning to `CN1CCN(C2CCN(S(=O)(=O)c3ccc(OC/C(=C\F)CN)nc3)CC2)C1=O` [Example 1, 1-{1-[6-((Z)-2-Aminomethyl-3-fluoro-allyloxy)-pyridine-3-sulfonyl]-piperidine-4-yl}-3-methyl-imidazolidin-2-one trifluoroacetate], the IC50 is 7 nM in assay [1] (read-out: AOC3 IC50) and > 50000 nM at MAO-A (IC50, read-out: MAO-A).

Take `COC(=O)CC1CCN(S(=O)(=O)c2ccc(OC/C(=C\F)CN)nc2)CC1` [Example 32]: the IC50 in assay [1] (read-out: AOC3 IC50) is 4 nM; on MAO-A (IC50, read-out: MAO-A), 38600 nM.

For the molecule `CNC(=O)[C@@H]1[C@@H]2CN(S(=O)(=O)c3ccc(OC/C(=C\F)CN)nc3)C[C@@H]21` [Example 5], the IC50 in assay [1] (read-out: AOC3 IC50) is 27 nM; on MAO-A (IC50, read-out: MAO-A) it was > 50000 nM.

On to `CC(=O)N[C@H]1CCCN(S(=O)(=O)c2ccc(OC/C(=C\F)CN)nc2)C1` [Example 6], for which the IC50 at MAO-A (IC50, read-out: MAO-A) was > 50000 nM.

For `COC1CN(S(=O)(=O)c2ccc(OC/C(=C\F)CN)cc2)C1` [Reference compound A, reference compound], the results for the IC50 (in assay [1] (setting [2]); on MAO-A (setting [3])) were 3 nM and 2350 nM, respectively.

As to `CC1(C(=O)O)CCN(S(=O)(=O)c2ccc(OC/C(=C\F)CN)nc2)CC1` [Example 47], the IC50 in assay [1] (read-out: AOC3 IC50) was 548 nM; at MAO-A (IC50, read-out: MAO-A), > 50000 nM.

As for `CN(C)S(=O)(=O)c1ccc(OC/C(=C\F)CN)cc1` [Compound 10 of WO 2013/163675, reference compound], the IC50 in assay [1] (setting [2]) was found to be 2 nM; on MAO-A (read-out: IC50 MAO-A), 7410 nM.

In the case of `NC/C(=C/F)COc1ccc(S(=O)(=O)N2CCC(CC(=O)N3CC(O)C3)CC2)cn1` [Example 55], the IC50 is 17 nM in assay [1] (read-out: AOC3 IC50) and > 50000 nM on MAO-A (IC50, read-out: MAO-A).

As for `CNC(=O)[C@@H]1CCN(S(=O)(=O)c2ccc(OC/C(=C\F)CN)nc2)C1` [Example 14], the IC50 on MAO-A (IC50, read-out: MAO-A) was > 50000 nM.

On to `CC(=O)N[C@@H]1CCCN(S(=O)(=O)c2ccc(OC/C(=C\F)CN)nc2)C1` [Example 24], for which the IC50 at MAO-A (IC50, read-out: MAO-A) is > 50000 nM.

Take `CNC(=O)[C@H]1CCN(S(=O)(=O)c2ccc(OC/C(=C\F)CN)nc2)C1` [Example 11]: on MAO-A (IC50, read-out: MAO-A), the IC50 was > 50000 nM.
